Measurements reported in ChEMBL document CHEMBL3832065, “DailyMed|setid=d976599a-0ee0-4fa4-afe6-bdfbca570afe | OLANZAPINE - olanzapine tablet, film coated|Rebel Distributors Corp”.

How the values were obtained:
[1] = (§1) Evaluation of pharmacokinetic parameters for Olanzapine after single oral dose of Olanzapine tablet.; format: ADME, organism-based; details: human, in vivo, regimen Single dose
[2] = tested on: Homo sapiens; assay: as §1; format: ADME, organism-based; details: in vivo, po, dosed compound id 18, dosed compound name OLANZAPINE, regimen Single dose, tissue Plasma
[3] = dosed compound id 18, dosed compound name OLANZAPINE, tissue Plasma

Cc1cc2c(s1)Nc1ccccc1N=C2N1CCN(C)CC1 [OLANZAPINE]
Tmax [1, 3]: 6 h
half-life [1, 3]: 1800 min
CL/F ([1]; dosed compound id 18, dosed compound name OLANZAPINE, tissue Plasma, read-out: CL(app) (converted)): 417 mL/min
dose excreted ([1]; dosed compound id 180, dosed compound name C-14 OLANZAPINE, tissue Urine, read-out: Excretion): 7%
Vd [2]: 1000 L
